From US20260176320A1, “MODULATORS OF G-PROTEIN COUPLED RECEPTORS” (priority 2018, published 2026)
Like-named read-outs stand apart in the source and are kept apart here.

Key:
Type in all cases: cell-based
[1] = molecular target: T1, GLP-1R (Homo sapiens, UniProt P43220); test: HitHunter cAMP assay (GLP-1R); conditions: cAMP; for Emax: read-out: (Emax) GLP-1R
Outline: (§1)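 Cells were resuspended in HBSS plus HEPES, IBMX (625 μM) and BSA, then dispensed with antibody at 10,000 per well. Agonists followed as 22-point twofold series, 30 min at room temperature. Antibody reagent and detection steps ran 1 h and overnight in the dark before luminescence.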

[2] = molecular target: T2, GIP-R (Homo sapiens, UniProt P48546); test: HitHunter cAMP assay (GIP-R); conditions: cAMP; for Emax: read-out: (Emax) GIP-R; for Emax at 1 µM: read-out: (Emax) GIP-R at 1 μM, Table 3
T2 sequence (P48546 22-466): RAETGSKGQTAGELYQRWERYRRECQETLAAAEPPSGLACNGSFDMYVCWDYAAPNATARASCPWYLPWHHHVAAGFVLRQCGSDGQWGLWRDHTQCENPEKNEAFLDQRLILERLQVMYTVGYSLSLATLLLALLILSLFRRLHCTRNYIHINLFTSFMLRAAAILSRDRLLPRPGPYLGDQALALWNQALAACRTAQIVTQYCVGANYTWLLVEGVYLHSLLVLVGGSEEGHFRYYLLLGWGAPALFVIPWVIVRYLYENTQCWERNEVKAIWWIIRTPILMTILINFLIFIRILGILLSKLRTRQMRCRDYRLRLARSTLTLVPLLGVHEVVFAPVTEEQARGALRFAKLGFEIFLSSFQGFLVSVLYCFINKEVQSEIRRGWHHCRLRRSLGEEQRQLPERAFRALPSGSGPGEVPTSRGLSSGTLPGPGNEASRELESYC
Outline: as §1

[3] = molecular target: T1, GLP-1R; test: PathHunter β-arrestin assay
Outline: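 Agonist concentration–response (22 points, 2-fold steps, duplicates) was run on cells plated the previous day in BSA-supplemented (0.2%) medium. Stimulation lasted 90 min at 37 °C, followed by a 3 h dark incubation with detection reagent at room temperature and a luminescence read.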

[4] = read-out: EC50 GIP-R/nM, Table 3A
[5] = Table 3, read-out: EC50 GLP-1R/nM
[6] = Table 3A, read-out: EC50 GLP-1R/nM
[7] = Table 3, read-out: EC50 GIP-R/nM
[8] = Table 3A, read-out: EC50 GIP-R/nM
[9] = PathHunter β-arrestin assay, read-out: β-arrestin activity EC50

T1 sequence (P43220 24-463): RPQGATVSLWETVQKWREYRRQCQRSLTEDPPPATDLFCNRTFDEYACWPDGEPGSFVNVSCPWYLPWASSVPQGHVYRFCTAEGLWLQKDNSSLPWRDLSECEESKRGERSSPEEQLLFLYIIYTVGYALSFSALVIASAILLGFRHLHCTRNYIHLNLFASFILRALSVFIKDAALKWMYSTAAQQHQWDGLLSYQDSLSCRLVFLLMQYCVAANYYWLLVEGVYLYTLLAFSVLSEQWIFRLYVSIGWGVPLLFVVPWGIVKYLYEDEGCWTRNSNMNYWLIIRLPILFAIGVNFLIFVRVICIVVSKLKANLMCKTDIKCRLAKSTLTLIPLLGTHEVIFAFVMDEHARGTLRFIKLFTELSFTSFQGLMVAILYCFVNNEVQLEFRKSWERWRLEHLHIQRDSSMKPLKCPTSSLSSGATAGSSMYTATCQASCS

Row | Compound | EC50 ([1]; EC50 GLP-1R/nM, Table 3) | EC50 ([1]; EC50 GLP-1R/nM, Table 3A) | Emax ([1]; Table 3) | Emax ([1]; Table 3A) | EC50 ([2]; EC50 GIP-R/nM, Table 3) | EC50 ([2]; EC50 GIP-R/nM, Table 3A) | Emax ([2]; Table 3) | Emax ([2]; Table 3A) | EC50 [3] | Emax at 1 µM [2] | EC50 [2, 4] | EC50 [1, 5] | EC50 [1, 6] | EC50 [2, 7] | EC50 [2, 8] | EC50 [3, 9]
1 | CCCCCCCCCCCCCCCC(=O)N[C@@H](CCC(=O)NCCCC[C@H](NC(=O)[C@H](CO)NC(=O)[C@@H]1CCCN1C(=O)[C@@H]1CCCN1C(=O)[C@@H]1CCCN1C(=O)[C@H](C)NC(=O)CNC(=O)[C@H](CO)NC(=O)[C@H](CO)NC(=O)[C@@H]1CCCN1C(=O)CNC(=O)CNC(=O)[C@H](C)NC(=O)[C@H](CC(C)C)NC(=O)[C@H](CC(C)C)NC(=O)[C@H](Cc1c[nH]c2ccccc12)NC(=O)[C@H](CC(N)=O)NC(=O)[C@@H](NC(=O)[C@H](Cc1ccccc1)NC(=O)[C@H](CCC(=O)O)NC(=O)C(C)(C)NC(=O)[C@H](C)NC(=O)[C@H](C)NC(=O)[C@H](CCC(N)=O)NC(=O)[C@H](CCCCN)NC(=O)[C@H](CC(=O)O)NC(=O)[C@H](CC(C)C)NC(=O)[C@H](Cc1ccc(O)cc1)NC(=O)[C@@H](NC(=O)[C@H](CO)NC(=O)[C@H](Cc1ccc(O)cc1)NC(=O)[C@H](CC(=O)O)NC(=O)[C@H](CO)NC(=O)[C@@H](NC(=O)[C@H](Cc1ccccc1)NC(=O)[C@@H](NC(=O)CNC(=O)[C@H](CCC(=O)O)NC(=O)CSCC(=O)NCCN1C(=O)c2ccccc2C1=O)[C@@H](C)O)[C@@H](C)O)[C@@H](C)CC)C(C)C)C(N)=O)C(=O)O [Compound 173] | 1 to 10 nM | 1 to 10 nM | 90 to 105% | 90 to 105% | 0.1 to 1 nM | 0.1 to 1 nM | 92 to 111% | 92 to 111% | > 1000 nM | – | – | – | – | – | – | –
2 | CC[C@H](C)[C@H](NC(=O)[C@H](CO)NC(=O)[C@H](Cc1ccc(O)cc1)NC(=O)[C@H](CC(=O)O)NC(=O)[C@H](CO)NC(=O)[C@@H](NC(=O)[C@H](Cc1ccccc1)NC(=O)[C@@H](NC(=O)CNC(=O)[C@H](CCC(=O)O)NC(=O)CCCCCCN1C(=O)CSC1=O)[C@@H](C)O)[C@@H](C)O)C(=O)N[C@@H](Cc1ccc(O)cc1)C(=O)N[C@@H](CC(C)C)C(=O)N[C@@H](CC(=O)O)C(=O)N[C@@H](CCCCN)C(=O)N[C@@H](CCC(N)=O)C(=O)N[C@@H](C)C(=O)N[C@@H](C)C(=O)NC(C)(C)C(=O)N[C@@H](CCC(=O)O)C(=O)N[C@@H](Cc1ccccc1)C(=O)N[C@H](C(=O)N[C@@H](CC(N)=O)C(=O)N[C@@H](Cc1c[nH]c2ccccc12)C(=O)N[C@@H](CC(C)C)C(=O)N[C@@H](CC(C)C)C(=O)N[C@@H](C)C(=O)NCC(=O)NCC(=O)N1CCC[C@H]1C(=O)N[C@@H](CO)C(=O)N[C@@H](CO)C(=O)NCC(=O)N[C@@H](C)C(=O)N1CCC[C@H]1C(=O)N1CCC[C@H]1C(=O)N1CCC[C@H]1C(=O)N[C@@H](CO)C(=O)N[C@@H](CCCCN)C(N)=O)C(C)C [Compound 176] | 10 to 100 nM | 10 to 100 nM | 92% | 92% | > 1000 nM | – | – | – | > 1000 nM | 1.8% | > 1000 nM | – | – | – | – | –
3 | CC[C@H](C)[C@H](NC(=O)[C@H](CO)NC(=O)[C@H](Cc1ccc(O)cc1)NC(=O)[C@H](CC(=O)O)NC(=O)[C@H](CO)NC(=O)[C@@H](NC(=O)[C@H](Cc1ccccc1)NC(=O)[C@@H](NC(=O)CNC(=O)[C@H](CCC(=O)O)NC(=O)CCCCNC(=O)CN1C(=O)CSC1=O)[C@@H](C)O)[C@@H](C)O)C(=O)N[C@@H](Cc1ccc(O)cc1)C(=O)N[C@@H](CC(C)C)C(=O)N[C@@H](CC(=O)O)C(=O)N[C@@H](CCCCN)C(=O)N[C@@H](CCC(N)=O)C(=O)N[C@@H](C)C(=O)N[C@@H](C)C(=O)NC(C)(C)C(=O)N[C@@H](CCC(=O)O)C(=O)N[C@@H](Cc1ccccc1)C(=O)N[C@H](C(=O)N[C@@H](CC(N)=O)C(=O)N[C@@H](Cc1c[nH]c2ccccc12)C(=O)N[C@@H](CC(C)C)C(=O)N[C@@H](CC(C)C)C(=O)N[C@@H](C)C(=O)NCC(=O)NCC(=O)N1CCC[C@H]1C(=O)N[C@@H](CO)C(=O)N[C@@H](CO)C(=O)NCC(=O)N[C@@H](C)C(=O)N1CCC[C@H]1C(=O)N1CCC[C@H]1C(=O)N1CCC[C@H]1C(=O)N[C@@H](CO)C(=O)N[C@@H](CCCCN)C(N)=O)C(C)C [Compound 177] | – | – | 96% | 96% | – | – | – | – | – | 9% | – | 1 to 10 nM | 1 to 10 nM | > 1000 nM | > 1000 nM | > 1000 nM
4 | CC[C@H](C)[C@H](NC(=O)[C@H](CO)NC(=O)[C@H](Cc1ccc(O)cc1)NC(=O)[C@H](CC(=O)O)NC(=O)[C@H](CO)NC(=O)[C@@H](NC(=O)[C@H](Cc1ccccc1)NC(=O)[C@@H](NC(=O)CNC(=O)[C@H](CCC(=O)O)NC(=O)CCCNC(=O)CN1C(=O)CSC1=O)[C@@H](C)O)[C@@H](C)O)C(=O)N[C@@H](Cc1ccc(O)cc1)C(=O)N[C@@H](CC(C)C)C(=O)N[C@@H](CC(=O)O)C(=O)N[C@@H](CCCCN)C(=O)N[C@@H](CCC(N)=O)C(=O)N[C@@H](C)C(=O)N[C@@H](C)C(=O)NC(C)(C)C(=O)N[C@@H](CCC(=O)O)C(=O)N[C@@H](Cc1ccccc1)C(=O)N[C@H](C(=O)N[C@@H](CC(N)=O)C(=O)N[C@@H](Cc1c[nH]c2ccccc12)C(=O)N[C@@H](CC(C)C)C(=O)N[C@@H](CC(C)C)C(=O)N[C@@H](C)C(=O)NCC(=O)NCC(=O)N1CCC[C@H]1C(=O)N[C@@H](CO)C(=O)N[C@@H](CO)C(=O)NCC(=O)N[C@@H](C)C(=O)N1CCC[C@H]1C(=O)N1CCC[C@H]1C(=O)N1CCC[C@H]1C(=O)N[C@@H](CO)C(=O)N[C@@H](CCCCN)C(N)=O)C(C)C [Compound 178] | – | – | 97% | 97% | – | – | 38% | 38% | – | – | – | 1 to 10 nM | 1 to 10 nM | 100 to 1000 nM | 100 to 1000 nM | > 1000 nM
5 | CC[C@H](C)[C@H](NC(=O)[C@H](CO)NC(=O)[C@H](Cc1ccc(O)cc1)NC(=O)[C@H](CC(=O)O)NC(=O)[C@H](CO)NC(=O)[C@@H](NC(=O)[C@H](Cc1ccccc1)NC(=O)[C@@H](NC(=O)CNC(=O)[C@H](CCC(=O)O)NC(=O)C12CC(C(=O)NCCN3C(=O)CSC3=O)(C1)C2)[C@@H](C)O)[C@@H](C)O)C(=O)N[C@@H](Cc1ccc(O)cc1)C(=O)N[C@@H](CC(C)C)C(=O)N[C@@H](CC(=O)O)C(=O)N[C@@H](CCCCN)C(=O)N[C@@H](CCC(N)=O)C(=O)N[C@@H](C)C(=O)N[C@@H](C)C(=O)NC(C)(C)C(=O)N[C@@H](CCC(=O)O)C(=O)N[C@@H](Cc1ccccc1)C(=O)N[C@H](C(=O)N[C@@H](CC(N)=O)C(=O)N[C@@H](Cc1c[nH]c2ccccc12)C(=O)N[C@@H](CC(C)C)C(=O)N[C@@H](CC(C)C)C(=O)N[C@@H](C)C(=O)NCC(=O)NCC(=O)N1CCC[C@H]1C(=O)N[C@@H](CO)C(=O)N[C@@H](CO)C(=O)NCC(=O)N[C@@H](C)C(=O)N1CCC[C@H]1C(=O)N1CCC[C@H]1C(=O)N1CCC[C@H]1C(=O)N[C@@H](CO)C(=O)N[C@@H](CCCCN)C(N)=O)C(C)C [Compound 179] | 0.1 to 1 nM | 0.1 to 1 nM | 103% | 103% | > 1000 nM | – | – | – | 10 to 1000 nM | 2% | > 1000 nM | – | – | – | – | –
6 | CC[C@H](C)[C@H](NC(=O)[C@H](CO)NC(=O)[C@H](Cc1ccc(O)cc1)NC(=O)[C@H](CC(=O)O)NC(=O)[C@H](CO)NC(=O)[C@@H](NC(=O)[C@H](Cc1ccccc1)NC(=O)[C@@H](NC(=O)CNC(=O)[C@H](CCC(=O)O)NC(=O)CSCC(=O)NCCCN1C(=O)c2ccccc2C1=O)[C@@H](C)O)[C@@H](C)O)C(=O)N[C@@H](Cc1ccc(O)cc1)C(=O)N[C@@H](CC(C)C)C(=O)N[C@@H](CC(=O)O)C(=O)N[C@@H](CCCCN)C(=O)N[C@@H](CCC(N)=O)C(=O)N[C@@H](C)C(=O)N[C@@H](C)C(=O)NC(C)(C)C(=O)N[C@@H](CCC(=O)O)C(=O)N[C@@H](Cc1ccccc1)C(=O)N[C@H](C(=O)N[C@@H](CC(N)=O)C(=O)N[C@@H](Cc1c[nH]c2ccccc12)C(=O)N[C@@H](CC(C)C)C(=O)N[C@@H](CC(C)C)C(=O)N[C@@H](C)C(=O)NCC(=O)NCC(=O)N1CCC[C@H]1C(=O)N[C@@H](CO)C(=O)N[C@@H](CO)C(=O)NCC(=O)N[C@@H](C)C(=O)N1CCC[C@H]1C(=O)N1CCC[C@H]1C(=O)N1CCC[C@H]1C(=O)N[C@@H](CO)C(=O)N[C@@H](CCCCN)C(N)=O)C(C)C [Compound 180] | – | – | 94% | 94% | – | – | 84% | 84% | – | – | – | 10 to 100 nM | 10 to 100 nM | 10 to 100 nM | 10 to 100 nM | > 1000 nM
